What was measured:
[1] = tested on: Plasmodium falciparum; assay: Antiplasmodial activity against chloroquine-resistant Plasmodium falciparum Dd2 by LDH assay; assay type: functional, organism-based
[2] = tested on: CHO; assay: Cytotoxicity against CHO cells assessed as reduction in cell viability by MTT assay; assay type: cell-based; settings: Cricetulus griseus
[3] = in vitro; settings: hamster, CHO cells
[4] = tested on: Leishmania major; assay: Antileishmanial activity against Leishmania major IR-173 promastigotes assessed as inhibition of parasite growth incubated for 72 hrs by resazurin dye based assay; assay type: functional, organism-based; settings: IR-173, 72 h
[5] = Selectivity index, ratio of IC50 for CHO cells to IC50 for antileishmanial activity against Leishmania donovani 1S by resazurin dye based assay; assay type: toxicity; settings: hamster, read-out: Ratio IC50
[6] = tested on: Leishmania donovani; assay: Antileishmanial activity against Leishmania donovani 9515 promastigotes assessed as inhibition of parasite growth incubated for 72 hrs by resazurin dye based assay; assay type: functional, organism-based; settings: Leishmania donovani, 9515, 72 h
[7] = Selectivity index, ratio of IC50 for CHO cells to IC50 for antileishmanial activity against Leishmania donovani 9515 by resazurin dye based assay; assay type: toxicity; settings: hamster, read-out: Ratio IC50
[8] = tested on: Leishmania donovani; assay: Antileishmanial activity against Leishmania donovani 1S promastigotes assessed as inhibition of parasite growth incubated for 72 hrs by resazurin dye based assay; assay type: functional, organism-based
[9] = tested on: Plasmodium falciparum; assay: Antiplasmodial activity against chloroquine-sensitive Plasmodium falciparum NF54 by LDH assay; assay type: functional, organism-based
[10] = tested on: Leishmania donovani; assay: Potency index, ratio of dihydroartemisinin IC50 to test compound IC50 for antileishmanial activity against Leishmania donovani 1S promastigotes incubated for 72 hrs by resazurin dye based assay; assay type: functional
[11] = tested on: Leishmania donovani; assay: Potency index, ratio of artemether IC50 to test compound IC50 for antileishmanial activity against Leishmania donovani 9515 promastigotes incubated for 72 hrs by resazurin dye based assay; assay type: functional
[12] = tested on: Leishmania donovani; assay: Potency index, ratio of dihydroartemisinin IC50 to test compound IC50 for antileishmanial activity against Leishmania donovani 9515 promastigotes incubated for 72 hrs by resazurin dye based assay; assay type: functional
[13] = tested on: Leishmania donovani; assay: Potency index, ratio of artemether IC50 to test compound IC50 for antileishmanial activity against Leishmania donovani 1S promastigotes incubated for 72 hrs by resazurin dye based assay; assay type: functional
[14] = tested on: Leishmania donovani; assay: Potency index, ratio of artesunate IC50 to test compound IC50 for antileishmanial activity against Leishmania donovani 1S promastigotes incubated for 72 hrs by resazurin dye based assay; assay type: functional
[15] = tested on: Leishmania donovani; assay: Potency index, ratio of artesunate IC50 to test compound IC50 for antileishmanial activity against Leishmania donovani 9515 promastigotes incubated for 72 hrs by resazurin dye based assay; assay type: functional

## CNCCCNc1c2ccc(Cl)cc2nc2ccc(OC)cc12
[1]
  IC50: 117 nM
[2]
  IC50: 0.5 µM
[3]
  selectivity ratio: 0.4
[4]
  IC50: 1.43 µM
[5]
  selectivity ratio: 0.2
[6]
  IC50: 3.33 µM
[7]
  selectivity ratio: 0.1
[8]
  IC50: 3.7 µM
[9]
  IC50: 9.1 nM

## COc1ccc2nc3cc(Cl)ccc3c(N3CCN(CCO[C@H]4O[C@@H]5O[C@@]6(C)CC[C@H]7[C@H](C)CC[C@@H]([C@H]4C)[C@@]57OO6)C(C)C3)c2c1 (stereo partly drawn)
[1]
  IC50: 41.3 nM
[2]
  IC50: 6 µM
[3]
  selectivity ratio: 9
[4]
  IC50: 0.69 µM
[5]
  selectivity ratio: 4
[6]
  IC50: 1.59 µM
[7]
  selectivity ratio: 5
[8]
  IC50: 2.38 µM
[9]
  IC50: 17 nM

## C[C@H]1[C@H](OC(=O)CCC(=O)O)O[C@@H]2O[C@@]3(C)CC[C@H]4[C@H](C)CC[C@@H]1[C@@]24OO3 [SODIUM ARESUNATE]
[2]
  IC50: > 100 µM
[3]
  selectivity ratio: 1.6
[4]
  IC50: 61.2 µM
[5]
  selectivity ratio: 1
[6]
  IC50: 80.2 µM
[7]
  selectivity ratio: 1.6
[8]
  IC50: 63.1 µM
[9]
  IC50: 8 nM

## CC[C@H]1CN2CCc3cc(OC)c(OC)cc3[C@@H]2C[C@@H]1C[C@H]1NCCc2cc(OC)c(OC)cc21 [EMETINE]
[2]
  IC50: 0.29 µM

## C[C@@H]1CC[C@H]2C(C)(COC(=O)c3ccc(F)cc3)O[C@@H]3O[C@@]4(C)CC[C@@H]1[C@]32OO4 (stereo partly drawn)
[1]
  IC50: 4.4 nM
[2]
  IC50: > 100 µM
[3]
  selectivity ratio: 13
[4]
  IC50: 7.57 µM
[5]
  selectivity ratio: > 12
[6]
  IC50: 8.11 µM
[7]
  selectivity ratio: 10
[8]
  IC50: 10.1 µM
[9]
  IC50: 3.7 nM

## COc1ccc2nc3cc(Cl)ccc3c(NCCN)c2c1
[1]
  IC50: 80.7 nM
[2]
  IC50: 1 µM
[3]
  selectivity ratio: 0.5
[4]
  IC50: 2.07 µM
[5]
  selectivity ratio: 0.4
[6]
  IC50: 2.81 µM
[7]
  selectivity ratio: 0.4
[8]
  IC50: 2.26 µM
[9]
  IC50: 13.9 nM

## CO[C@H]1O[C@@H]2O[C@@]3(C)CC[C@H]4[C@H](C)CC[C@@H]([C@H]1C)[C@@]24OO3
[2]
  IC50: > 100 µM
[3]
  selectivity ratio: 4
[4]
  IC50: 22.5 µM
[5]
  selectivity ratio: 1
[6]
  IC50: 90.9 µM
[7]
  selectivity ratio: 2
[8]
  IC50: 42.3 µM

## CCCCCC(=O)OCC1(C)O[C@@H]2O[C@@]3(C)CC[C@H]4[C@H](C)CC[C@@H]1[C@@]24OO3 (stereo partly drawn)
[1]
  IC50: 43.2 nM
[2]
  IC50: > 100 µM
[3]
  selectivity ratio: 7
[4]
  IC50: 13.9 µM
[5]
  selectivity ratio: > 4
[6]
  IC50: 23 µM
[7]
  selectivity ratio: 4
[8]
  IC50: 25.5 µM
[9]
  IC50: 60.1 nM

## C[C@@H]1CC[C@H]2C(C)(COC(=O)CCc3ccccc3)O[C@@H]3O[C@@]4(C)CC[C@@H]1[C@]32OO4 (stereo partly drawn)
[1]
  IC50: 11.5 nM
[2]
  IC50: > 100 µM
[3]
  selectivity ratio: 16
[4]
  IC50: 6.36 µM
[5]
  selectivity ratio: > 4
[6]
  IC50: 24.6 µM
[7]
  selectivity ratio: 4
[8]
  IC50: 24.4 µM
[9]
  IC50: 7.4 nM

## C[C@@H]1CC[C@H]2C(C)(COC(=O)c3cccs3)O[C@@H]3O[C@@]4(C)CC[C@@H]1[C@]32OO4 (stereo partly drawn)
[1]
  IC50: 5.9 nM
[2]
  IC50: > 100 µM
[3]
  selectivity ratio: 10
[10]
  Ratio IC50: 30
[11]
  Ratio IC50: 30
[12]
  Ratio IC50: 30
[4]
  IC50: 9.93 µM
[13]
  Ratio IC50: 30
[14]
  Ratio IC50: 30
[6]
  IC50: > 100 µM
[15]
  Ratio IC50: 30
[7]
  selectivity ratio: 9
[8]
  IC50: 11.5 µM
[9]
  IC50: 4.8 nM

## C[C@@H]1CC[C@H]2C(C)(COC(=O)[C@H]3CCCN3C(=O)C(F)(F)F)O[C@@H]3O[C@@]4(C)CC[C@@H]1[C@]32OO4 (stereo partly drawn)
[1]
  IC50: 7.8 nM
[2]
  IC50: > 100 µM
[3]
  selectivity ratio: 4
[4]
  IC50: 15.6 µM
[5]
  selectivity ratio: 3
[6]
  IC50: 37.6 µM
[7]
  selectivity ratio: 11
[8]
  IC50: 9.29 µM
[9]
  IC50: 7.9 nM

## COc1ccc2nc3cc(Cl)ccc3c(N3CCN(CCO[C@H]4O[C@@H]5O[C@@]6(C)CC[C@H]7[C@H](C)CC[C@@H]([C@H]4C)[C@@]57OO6)CC3)c2c1
[1]
  IC50: 430 nM
[2]
  IC50: > 100 µM
[3]
  selectivity ratio: 33
[4]
  IC50: 4.8 µM
[5]
  selectivity ratio: 5
[6]
  IC50: 32.1 µM
[7]
  selectivity ratio: 3
[8]
  IC50: 54.1 µM
[9]
  IC50: 267 nM

## COc1ccc2nc3cc(Cl)ccc3c(N3CCNCC3)c2c1
[1]
  IC50: 1670 nM
[2]
  IC50: 3.4 µM
[3]
  selectivity ratio: 1
[4]
  IC50: 3.52 µM
[5]
  selectivity ratio: 1.1
[6]
  IC50: 3.21 µM
[7]
  selectivity ratio: 1
[8]
  IC50: 3.26 µM
[9]
  IC50: 1490 nM

## C[C@@H]1CC[C@H]2C(C)(COC(=O)c3ccco3)O[C@@H]3O[C@@]4(C)CC[C@@H]1[C@]32OO4 (stereo partly drawn)
[1]
  IC50: 3.1 nM
[2]
  IC50: > 100 µM
[3]
  selectivity ratio: 1
[4]
  IC50: > 100 µM
[6]
  IC50: > 100 µM
[7]
  selectivity ratio: 1
[8]
  IC50: > 100 µM
[9]
  IC50: 9.2 nM

## COc1ccc2nc3cc(Cl)ccc3c(NCCCN(C)CCO[C@H]3O[C@@H]4O[C@@]5(C)CC[C@H]6[C@H](C)CC[C@@H]([C@H]3C)[C@@]46OO5)c2c1
[1]
  IC50: 38.5 nM
[2]
  IC50: 1.2 µM
[3]
  selectivity ratio: 5
[4]
  IC50: 0.23 µM
[5]
  selectivity ratio: 7
[6]
  IC50: 0.17 µM
[7]
  selectivity ratio: 3
[8]
  IC50: 0.37 µM
[9]
  IC50: 12.2 nM

## C[C@@H]1CC[C@H]2C(C)(COC(=O)c3ccc([N+](=O)[O-])cc3)O[C@@H]3O[C@@]4(C)CC[C@@H]1[C@]32OO4 (stereo partly drawn)
[1]
  IC50: 2.6 nM
[2]
  IC50: > 100 µM
[3]
  selectivity ratio: 18
[4]
  IC50: 5.71 µM
[5]
  selectivity ratio: > 24
[6]
  IC50: 4.26 µM
[7]
  selectivity ratio: 19
[8]
  IC50: 5.15 µM
[9]
  IC50: 6.7 nM

## C[C@@H]1CC[C@H]2C(C)(COC(=O)c3ccc(-c4ccccc4)cc3)O[C@@H]3O[C@@]4(C)CC[C@@H]1[C@]32OO4 (stereo partly drawn)
[1]
  IC50: 6.9 nM
[2]
  IC50: > 100 µM
[3]
  selectivity ratio: 10
[10]
  Ratio IC50: 30
[11]
  Ratio IC50: 30
[12]
  Ratio IC50: 30
[4]
  IC50: 9.87 µM
[13]
  Ratio IC50: 30
[5]
  selectivity ratio: > 36
[14]
  Ratio IC50: 30
[6]
  IC50: 2.8 µM
[15]
  Ratio IC50: 30
[7]
  selectivity ratio: 23
[8]
  IC50: 4.42 µM
[9]
  IC50: 7.3 nM

## COc1ccc2nc3cc(Cl)ccc3c(N3CCNC(C)C3)c2c1 (stereo not drawn)
[1]
  IC50: 384 nM
[2]
  IC50: 5.6 µM
[3]
  selectivity ratio: 1.6
[4]
  IC50: 3.47 µM
[5]
  selectivity ratio: 1.6
[6]
  IC50: 3.54 µM
[7]
  selectivity ratio: 1.4
[8]
  IC50: 4.16 µM
[9]
  IC50: 158 nM

## C[C@@H]1CC[C@H]2C(C)(COC(=O)c3cc4ccccc4o3)O[C@@H]3O[C@@]4(C)CC[C@@H]1[C@]32OO4 (stereo partly drawn)
[1]
  IC50: 7.1 nM
[2]
  IC50: > 100 µM
[3]
  selectivity ratio: 9
[4]
  IC50: 11.2 µM
[5]
  selectivity ratio: > 10
[6]
  IC50: 10.3 µM
[7]
  selectivity ratio: 7
[8]
  IC50: 13.5 µM
[9]
  IC50: 14.6 nM

## CCCC(=O)OCC1(C)O[C@@H]2O[C@@]3(C)CC[C@H]4[C@H](C)CC[C@@H]1[C@@]24OO3 (stereo partly drawn)
[1]
  IC50: 6.9 nM
[2]
  IC50: > 100 µM
[3]
  selectivity ratio: 8
[4]
  IC50: 11.9 µM
[5]
  selectivity ratio: > 2
[6]
  IC50: 45 µM
[7]
  selectivity ratio: 8
[8]
  IC50: 12.4 µM
[9]
  IC50: 16.9 nM

## COc1ccc2nc3cc(Cl)ccc3c(NCCNCCO[C@H]3O[C@@H]4O[C@@]5(C)CC[C@H]6[C@H](C)CC[C@@H]([C@H]3C)[C@@]46OO5)c2c1
[1]
  IC50: 35.3 nM
[2]
  IC50: 1.6 µM
[3]
  selectivity ratio: 6
[4]
  IC50: 0.29 µM
[5]
  selectivity ratio: 5
[6]
  IC50: 0.32 µM
[7]
  selectivity ratio: 4
[8]
  IC50: 0.38 µM
[9]
  IC50: 2.6 nM

## C[C@@H]1CC[C@H]2C(C)(CO)O[C@@H]3O[C@@]4(C)CC[C@@H]1[C@]32OO4 (stereo partly drawn)
[1]
  IC50: 7.4 nM
[2]
  IC50: > 100 µM
[3]
  selectivity ratio: 1
[4]
  IC50: > 100 µM
[6]
  IC50: > 100 µM
[7]
  selectivity ratio: 1
[8]
  IC50: > 100 µM
[9]
  IC50: 4.1 nM

## C[C@H]1[C@@H](O)O[C@@H]2O[C@@]3(C)CC[C@H]4[C@H](C)CC[C@@H]1[C@@]24OO3 [ARTENIMOL]
[1]
  IC50: 1.2 nM
[2]
  IC50: > 100 µM
[3]
  selectivity ratio: 2
[4]
  IC50: 42.6 µM
[5]
  selectivity ratio: 3
[6]
  IC50: 31.2 µM
[7]
  selectivity ratio: 4
[8]
  IC50: 27 µM
[9]
  IC50: 2.2 nM

## CC(=O)OCC1(C)O[C@@H]2O[C@@]3(C)CC[C@H]4[C@H](C)CC[C@@H]1[C@@]24OO3 (stereo partly drawn)
[1]
  IC50: 12.6 nM
[2]
  IC50: > 100 µM
[3]
  selectivity ratio: 2
[4]
  IC50: 42.1 µM
[6]
  IC50: > 100 µM
[7]
  selectivity ratio: 1
[8]
  IC50: 85.2 µM
[9]
  IC50: 11.2 nM
